# Reference: US6084072A, “Purified lectin and methods of use” (The Regents of the University of Michigan, priority 1993, dated 2000)
# Values joined by “and” are separate entries in the source; they are usually repeats but may differ in a detail not shown here. Identical values can stand only once.
# What was measured:
# [1] = tested on: HNPCC tissues; test: Lectin histochemistry, HNPCC rectal biopsies; format: binding, human; set-up: key to Staining (global score 0-3+): 4^+: Maximum labeling of the brown reaction product; 0: No staining of the slide compared to control sections; 1^+: trace or weak staining definitely not seen on control slides; 2+3^+: stronger staining, but definitely less than maximal; conditions: listed as ACA; for Weighted Average (0-400): mean ± SEM
# Excerpt: Rectal biopsies were obtained from individuals who were first degree relatives of patients with hereditary nonpolyposis colorectal cancer (HNPCC) as identified by H. T. Lynch, M.D. These patients were the siblings or offspring of index patients who fit the criteria for Lynch Syndrome I or II. See Drzeniek, Z., and Usowska, E. (1979) Arch. Immunol Ther. Exp. 27, 253-262. However, since there is no definitive genetic or phenotypic marker for this familial syndrome, it is not possible to be certain that these patients represent a single homogenous genetic abnormality. The biopsies were fixed in formalin, and embedded in paraffin for tissue sectioning.
# (§1) Four micron paraffin embedded tissue sections attached to glass slides were deparaffinized by serial incubations in xylene (twice), absolute ethanol (thrice), 95% ethanol, 70% ethanol, water and finally equilibrated in phosphate buffered saline (PBS), pH 7.0, containing 0.1% bovine serum albumin (BSA) commercially available from Sigma Corp of St. Louis, Mo. The slides were blotted dry adjacent to the tissue sections, and biotinylated lectin was added at a concentration of 10 μg/ml (for ACA) and 20 μg/ml (for PNA) in a quantity sufficient to completely cover the hydrated tissue (100-2001 μl). The lectin was rinsed off after a 30 minute incubation by eight 2-second dips into phosphate buffered saline. The slides were again blotted, and the tissue covered with Streptavidin-horseradish peroxidase (HRP) obtained from Zymed Laboratories, San Francisco, Calif. at a concentration of 10 μg/ml for 30 minutes. The slides were rinsed as mentioned above, and the pigmented reaction product developed by the addition of a freshly prepared chromogen reagent solution prepared within two hours of use as follows. […]
# Therefore, each individual crypt of Lieberkuhn was given a score from 0-4^+, and the labeling was expressed as a "weighted average", or, the sum of scores from 100 crypts, which could range from 0 (all crypts not labeled) to 400 (all 100 crypts maximally labeled). […]
# [2] = tested on: hog lymphocytes; conditions: cited from earlier work
# [3] = tested on: asialo-ovine submaxillary mucin; test: Metal analysis of amaranthin activity in the precipitation assay; format: binding
# Experimental: For metal analysis two methods were used to determine if metals were necessary for amaranthin activity. 1) Amaranthin was dialyzed against 1 N acetic acid at 4° C. overnight, and then against 20 mM phosphate buffer at pH 7.2. The acid dialyzed amaranthin was then used in the standard precipitation assay with asialo-ovine submaxillary mucin and the indicated additions. 2) After dialysis into metal free buffer, amaranthin was incubated for 1 hour at room temperature in the presence of the indicated ethylene diamine tetraacetate (EDTA) concentrations. Asialo-ovine submaxillary mucin was then added, and the precipitation assay was carried out as usual. All glassware was acid-washed and buffers were passed over a Chelex 100 column, a trademarked, column commercially available from Bio-Rad to remove divalent metal ions.
# [4] = tested on: colonic adenocarcinoma; format: binding, human; set-up: key to Labeling of transitional mucosa: 4^+: Maximum labeling of the brown reaction product; 0: No staining of the slide compared to control sections; 1^+: trace or weak staining definitely not seen on control slides; 2+3^+: stronger staining, but definitely less than maximal
# [5] = tested on: adenomatous colonic polyps; test: Lectin histochemistry, adenomatous colonic polyps; format: binding, human; conditions: glands in adenomatous polyps; mean ± SEM; listed as ACA
# Excerpt: Specimens of adenocarcinoma of the colon and adenomatious colonic polyps from resected specimens were obtained from the Pathology Service at the Ann Arbor Veterans Administration Medical Center. These specimens were obtained at surgery or at colonoscopic polypectomy, fixed in buffered formalin, and embedded in paraffin for routine pathological examination. Additional four micron sections were cut for lectin histochemistry after the pathological diagnosis was confirmed.
# as §1, with “minutes.” for “minutes. The slides were rinsed as mentioned above, and the pigmented reaction product developed by the addition of a freshly prepared chromogen reagent solution prepared within two hours of use as follows.”
# [6] = tested on: mucin purified from the LS174T xenograft; test: Solid phase enzyme-linked lectin-binding assay
# Experimental: A solid phase enzyme-linked lectin-binding assay has been developed for ACA to quantitate lectin binding to solubilized glycoconjugates. ACA is more sensitive in the measurement of purified cancer-associated mucin than peanut lectin, and can detect as little as 1 mg of mucin purified from the LS174T xenograft.
substance,measurement,setting,value
amaranthin,Weighted Average (0-400),[1]; HNPCC outliers,203±43
same,Weighted Average (0-400),[1]; HNPCC,74±70
same,Staining (global score 0-3+),[1]; biotinylated ACA 10 μg/mL or PNA 20 μg/mL,1^+
same,"mitogenicity, in words",[2],non-mitogenic
same,% Control reactivity,[3]; 5 mM EDTA,100%
same,% Control reactivity,[3]; 25 mM EDTA,100%
same,% Control reactivity,[3]; Acid dialyzed amaranthin & AOSM,81%
same,% Control reactivity,"[3]; Acid dialyzed amaranthin & AOSM, 0.1 mM CaCl2",80%
same,% Control reactivity,"[3]; Acid dialyzed amaranthin & AOSM, 0.1 mM MgCl2",80%
same,% Control reactivity,"[3]; Acid dialyzed amaranthin & AOSM, 0.1 mM MnCl2",79%
same,"effect of EDTA on precipitating activity, in words",[3]; ethylene diamine tetra acetate 5-25 mM,had no effect
same,Effect of Newcastle disease virus neuraminidase on labeling,[4]; cancer specimens,Neither sialidase enhanced labeling
same,Effect of V. Cholerae neuraminidase on labeling,[4]; cancer specimens,Neither sialidase enhanced labeling
same,Percent of Epithelial Units Labeled,"[4]; malignant glands, mean ± SEM, listed as ACA",97±2% and 97%±2%
same,Labeling of transitional mucosa,"[4]; mucosa adjacent to colonic cancer, upper and lower crypt region",1^+
same,Percent of Epithelial Units Labeled,[5],82±7% and 82%±7% and 82 + 7%
same,smallest amount of mucin detected,[6],1 mg
